Measurements reported in patent US20100055032A1, “METHODS FOR […] IMAGING USING NANOP[…] AGENTS” (NanoScan Imaging LLC, priority 2001, published 2010).

Assay: CT evaluation of initial uptake and vascular distribution of PH-50 in normal rabbits
Format: in vivo, New Zealand white rabbits
Settings: for Percent Uptake (%) Aorta / Percent Uptake (%) Brain / Percent Uptake (%) Cardiac / Percent Uptake (%) Liver / Percent Uptake (%) Portal Vein / Percent Uptake (%) Posterior Vena Cava: pre-treatment = 0
Protocol: One (1) mL of PH-50 injected as a bolus intravenously (IV) via the jugular vein (n=2); and three (3) mL with a five (5) minute infusion via IV by way of the jugular vein (n=2); using the criteria set forth below in Table 1:
The animals were anesthetized via mask using Isoflorene® prior to each study and maintained under anesthesia during CT scan procedures. The animals were recovered and were mobile and allowed to drink up to the 8 hour study. Digital Subtraction Angiography (DSA) was performed during initial injection (one IV bolus and one infusion), then each rabbit was immediately moved to CT. The CT was performed after the initial injection (one IV bolus and one infusion).
All CT imaging was performed using a GE® Sytec Sri Helical Scanner (Milwaukee, Wis.) and the images were stored as DICOM3 on GE® optical and CD-Rom medium. The CT imaging parameters for these studies were 1 mm consecutive slices at 120 kvp at 1.5 sec, 200 mA. All scans were done with a standard phantom placed beneath the animal. All CT scans performed were of the entire animal (rostral nasal area to pelvis). Contrast attenuation was measured in Hounsfield units (HU) and expressed as percent (%) uptake, taking into account the calibration from the phantom. The iodine concentration and iodine uptake were estimated post-injection from vascular, lung and liver tissues.

[1] = Rabbit No. 1151 (infusion), 0 min
[2] = Rabbit No. 1151 (infusion), 5 min
[3] = Rabbit No. 1151 (infusion), 15 min
[4] = Rabbit No. 1151 (infusion), 60 min
[5] = Rabbit No. 1151 (infusion), 480 min
[6] = Rabbit No. 1151, infusion 3 mL/5 min IV (150 mg/kg), 0 min post injection
[7] = Rabbit No. 1151, infusion 3 mL/5 min IV (150 mg/kg), 5 min post injection
[8] = Rabbit No. 1151, infusion 3 mL/5 min IV (150 mg/kg), 15 min post injection
[9] = Rabbit No. 1151, infusion 3 mL/5 min IV (150 mg/kg), 60 min post injection
[10] = Rabbit No. 1151, infusion 3 mL/5 min IV (150 mg/kg), 480 min post injection
[11] = Rabbit No. 1156 (bolus), 15 min
[12] = Rabbit No. 1156 (bolus), 60 min
[13] = Rabbit No. 1156 (bolus), 480 min
[14] = Rabbit No. 1156, bolus injection 1 mL IV (50 mg/kg), 0 min post injection
[15] = Rabbit No. 1156, bolus injection 1 mL IV (50 mg/kg), 5 min post injection
[16] = Rabbit No. 1156, bolus injection 1 mL IV (50 mg/kg), 15 min post injection
[17] = Rabbit No. 1156, bolus injection 1 mL IV (50 mg/kg), 60 min post injection
[18] = Rabbit No. 1156, bolus injection 1 mL IV (50 mg/kg), 480 min post injection
[19] = Rabbit No. 1159, bolus injection 1 mL IV (50 mg/kg), 15 min post injection
[20] = Rabbit No. 1159, bolus injection 1 mL IV (50 mg/kg), 60 min post injection
[21] = Rabbit No. 1159, bolus injection 1 mL IV (50 mg/kg), 480 min post injection
[22] = Rabbit No. 1166, infusion 3 mL/5 min IV (150 mg/kg), 15 min post injection
[23] = Rabbit No. 1166, infusion 3 mL/5 min IV (150 mg/kg), 60 min post injection
[24] = Rabbit No. 1166, infusion 3 mL/5 min IV (150 mg/kg), 480 min post injection

CCOC(=O)CCCCCOC(=O)c1c(I)c(NC(C)=O)c(I)c(NC(C)=O)c1I [PH-50, 6-ethoxy-6-oxohexy-3,5-bis(acetylamino)-2,4,6-triiodobenzoate]
Percent Uptake (%) Aorta [1]: 44% | Percent Uptake (%) Brain [1]: 2% | Percent Uptake (%) Cardiac [1]: 33% | Percent Uptake (%) Liver [1]: 8% | Percent Uptake (%) Portal Vein [1]: 48% | Percent Uptake (%) Posterior Vena Cava [1]: 54% | Percent Uptake (%) Aorta [2]: 14% | Percent Uptake (%) Brain [2]: 17% | Percent Uptake (%) Cardiac [2]: 61% | Percent Uptake (%) Liver [2]: 32% | Percent Uptake (%) Portal Vein [2]: 91% | Percent Uptake (%) Posterior Vena Cava [2]: 44% | Percent Uptake (%) Aorta [3]: 37% | Percent Uptake (%) Brain [3]: 6% | Percent Uptake (%) Cardiac [3]: 4% | Percent Uptake (%) Liver [3]: 29% | Percent Uptake (%) Portal Vein [3]: 56% | Percent Uptake (%) Posterior Vena Cava [3]: 0% | Percent Uptake (%) Aorta [4]: 39% | Percent Uptake (%) Brain [4]: 14% | Percent Uptake (%) Cardiac [4]: 6% | Percent Uptake (%) Liver [4]: 21% | Percent Uptake (%) Portal Vein [4]: −5% | Percent Uptake (%) Posterior Vena Cava [4]: −43% | Percent Uptake (%) Aorta [5]: −62% | Percent Uptake (%) Brain [5]: 90.1% | Percent Uptake (%) Cardiac [5]: 0% | Percent Uptake (%) Liver [5]: −19% | Percent Uptake (%) Portal Vein [5]: 7% | Percent Uptake (%) Posterior Vena Cava [5]: −21% | Hounsfield Units (HU) Aorta [6]: 49.08 HU | Hounsfield Units (HU) Brain [6]: 44.89 HU | Hounsfield Units (HU) Cardiac [6]: 48.32 HU | Hounsfield Units (HU) Liver [6]: 93.08 HU | Hounsfield Units (HU) Portal Vein [6]: 54.03 HU | Hounsfield Units (HU) Posterior Vena Cava [6]: 73.00 HU | Hounsfield Units (HU) Aorta [7]: 38.85 HU | Hounsfield Units (HU) Brain [7]: 51.38 HU | Hounsfield Units (HU) Cardiac [7]: 58.67 HU | Hounsfield Units (HU) Liver [7]: 113.68 HU | Hounsfield Units (HU) Portal Vein [7]: 69.54 HU | Hounsfield Units (HU) Posterior Vena Cava [7]: 68.54 HU | Hounsfield Units (HU) Aorta [8]: 46.77 HU | Hounsfield Units (HU) Brain [8]: 46.75 HU | Hounsfield Units (HU) Cardiac [8]: 37.81 HU | Hounsfield Units (HU) Liver [8]: 111.22 HU | Hounsfield Units (HU) Portal Vein [8]: 56.85 HU | Hounsfield Units (HU) Posterior Vena Cava [8]: 47.46 HU | Hounsfield Units (HU) Aorta [9]: 47.62 HU | Hounsfield Units (HU) Brain [9]: 50.38 HU | Hounsfield Units (HU) Cardiac [9]: 38.49 HU | Hounsfield Units (HU) Liver [9]: 104.26 HU | Hounsfield Units (HU) Portal Vein [9]: 34.46 HU | Hounsfield Units (HU) Posterior Vena Cava [9]: 27.00 HU | Hounsfield Units (HU) Aorta [10]: 13.00 HU | Hounsfield Units (HU) Brain [10]: 34.37 HU | Hounsfield Units (HU) Cardiac [10]: 36.35 HU | Hounsfield Units (HU) Liver [10]: 69.57 HU | Hounsfield Units (HU) Portal Vein [10]: 38.81 HU | Hounsfield Units (HU) Posterior Vena Cava [10]: 37.72 HU | Percent Uptake (%) Aorta (Rabbit No. 1156 (bolus), 0 min): 317.0% | Percent Uptake (%) Brain (Rabbit No. 1156 (bolus), 0 min): −8% | Percent Uptake (%) Cardiac (Rabbit No. 1156 (bolus), 0 min): 38% | Percent Uptake (%) Liver (Rabbit No. 1156 (bolus), 0 min): 13% | Percent Uptake (%) Portal Vein (Rabbit No. 1156 (bolus), 0 min): 24% | Percent Uptake (%) Posterior Vena Cava (Rabbit No. 1156 (bolus), 0 min): 168.0% | Percent Uptake (%) Aorta (Rabbit No. 1156 (bolus), 5 min): 118% | Percent Uptake (%) Brain (Rabbit No. 1156 (bolus), 5 min): −15% | Percent Uptake (%) Cardiac (Rabbit No. 1156 (bolus), 5 min): 15% | Percent Uptake (%) Liver (Rabbit No. 1156 (bolus), 5 min): 26% | Percent Uptake (%) Portal Vein (Rabbit No. 1156 (bolus), 5 min): 38% | Percent Uptake (%) Posterior Vena Cava (Rabbit No. 1156 (bolus), 5 min): 253% | Percent Uptake (%) Aorta [11]: 162% | Percent Uptake (%) Brain [11]: −8% | Percent Uptake (%) Cardiac [11]: 12% | Percent Uptake (%) Liver [11]: 22% | Percent Uptake (%) Portal Vein [11]: 90% | Percent Uptake (%) Posterior Vena Cava [11]: 112% | Percent Uptake (%) Aorta [12]: 63% | Percent Uptake (%) Brain [12]: −3% | Percent Uptake (%) Cardiac [12]: 18% | Percent Uptake (%) Liver [12]: 19% | Percent Uptake (%) Portal Vein [12]: 108% | Percent Uptake (%) Posterior Vena Cava [12]: 33% | Percent Uptake (%) Aorta [13]: 23% | Percent Uptake (%) Brain [13]: −3% | Percent Uptake (%) Cardiac [13]: 4% | Percent Uptake (%) Liver [13]: −12% | Percent Uptake (%) Portal Vein [13]: −5% | Percent Uptake (%) Posterior Vena Cava [13]: 91% | Hounsfield Units (HU) Aorta [14]: 65.00 HU | Hounsfield Units (HU) Brain [14]: 29.00 HU | Hounsfield Units (HU) Cardiac [14]: 54.00 HU | Hounsfield Units (HU) Liver [14]: 85.00 HU | Hounsfield Units (HU) Portal Vein [14]: 52.00 HU | Hounsfield Units (HU) Posterior Vena Cava [14]: 51.00 HU | Hounsfield Units (HU) Aorta [15]: 34.00 HU | Hounsfield Units (HU) Brain [15]: 27.00 HU | Hounsfield Units (HU) Cardiac [15]: 45.00 HU | Hounsfield Units (HU) Liver [15]: 95.32 HU | Hounsfield Units (HU) Portal Vein [15]: 58.08 HU | Hounsfield Units (HU) Posterior Vena Cava [15]: 67.00 HU | Hounsfield Units (HU) Aorta [16]: 40.85 HU | Hounsfield Units (HU) Brain [16]: 29.03 HU | Hounsfield Units (HU) Cardiac [16]: 44.02 HU | Hounsfield Units (HU) Liver [16]: 91.73 HU | Hounsfield Units (HU) Portal Vein [16]: 79.65 HU | Hounsfield Units (HU) Posterior Vena Cava [16]: 40.31 HU | Hounsfield Units (HU) Aorta [17]: 25.38 HU | Hounsfield Units (HU) Brain [17]: 30.57 HU | Hounsfield Units (HU) Cardiac [17]: 46.52 HU | Hounsfield Units (HU) Liver [17]: 89.56 HU | Hounsfield Units (HU) Portal Vein [17]: 87.37 HU | Hounsfield Units (HU) Posterior Vena Cava [17]: 25.31 HU | Hounsfield Units (HU) Aorta [18]: 19.20 HU | Hounsfield Units (HU) Brain [18]: 30.50 HU | Hounsfield Units (HU) Cardiac [18]: 40.65 HU | Hounsfield Units (HU) Liver [18]: 66.15 HU | Hounsfield Units (HU) Portal Vein [18]: 39.73 HU | Hounsfield Units (HU) Posterior Vena Cava [18]: 36.24 HU | Hounsfield Units (HU) Aorta [19]: 43.80 HU | Hounsfield Units (HU) Brain [19]: 32.30 HU | Hounsfield Units (HU) Cardiac [19]: 30.13 HU | Hounsfield Units (HU) Liver [19]: 87.08 HU | Hounsfield Units (HU) Portal Vein [19]: 53.54 HU | Hounsfield Units (HU) Posterior Vena Cava [19]: 52.17 HU | Hounsfield Units (HU) Aorta [20]: 43.83 HU | Hounsfield Units (HU) Brain [20]: 34.39 HU | Hounsfield Units (HU) Cardiac [20]: 44.96 HU | Hounsfield Units (HU) Liver [20]: 94.17 HU | Hounsfield Units (HU) Portal Vein [20]: 89.92 HU | Hounsfield Units (HU) Posterior Vena Cava [20]: 65.48 HU | Hounsfield Units (HU) Aorta [21]: 21.00 HU | Hounsfield Units (HU) Brain [21]: 31.00 HU | Hounsfield Units (HU) Cardiac [21]: 33.73 HU | Hounsfield Units (HU) Liver [21]: 76.24 HU | Hounsfield Units (HU) Portal Vein [21]: 39.15 HU | Hounsfield Units (HU) Posterior Vena Cava [21]: 25.36 HU | Hounsfield Units (HU) Aorta [22]: 20.82 HU | Hounsfield Units (HU) Brain [22]: 27.15 HU | Hounsfield Units (HU) Cardiac [22]: 47.51 HU | Hounsfield Units (HU) Liver [22]: 117.99 HU | Hounsfield Units (HU) Portal Vein [22]: 63.85 HU | Hounsfield Units (HU) Posterior Vena Cava [22]: 43.09 HU | Hounsfield Units (HU) Aorta [23]: 23.08 HU | Hounsfield Units (HU) Brain [23]: 34.85 HU | Hounsfield Units (HU) Cardiac [23]: 37.66 HU | Hounsfield Units (HU) Liver [23]: 108.39 HU | Hounsfield Units (HU) Portal Vein [23]: 59.87 HU | Hounsfield Units (HU) Posterior Vena Cava [23]: 25.08 HU | Hounsfield Units (HU) Aorta [24]: 14.30 HU | Hounsfield Units (HU) Brain [24]: 38.90 HU | Hounsfield Units (HU) Cardiac [24]: 35.31 HU | Hounsfield Units (HU) Liver [24]: 63.20 HU | Hounsfield Units (HU) Portal Vein [24]: 42.92 HU | Hounsfield Units (HU) Posterior Vena Cava [24]: 39.35 HU | adverse reactions to the compound (normal rabbits, 1 mL bolus or 3 mL/5 min infusion IV): no adverse reactions | Hounsfield units in the liver post-injection (normal rabbits, CT): dramatic increase
